*1 amine or outer side, *2 acyl side, *3 side chain or, on linkers, in order; H or OH if unused. Where no end group is shown, it is not given here. Side-chain parts run from the residue outwards. [ ]: non-standard residue; d: D form. The star is where a group is joined. C16 = palmitoyl, CCCCCCCCCCCCCCCC(=O)*; γGlu = O=C(O)[C@H](CCC(=O)[*:2])N[*:1]
Columns and labels:
[1] = Cumulative body weight change in DIO mice, daily s.c. dosing for nine days (Example 18, FIG. 1); assay type: in vivo, mice (strain C57Bl6/NTac); conditions: 9 nmol/kg s.c. daily, day 9
Experimental: Mice were administered a vehicle control or a dose of a peptide daily for nine days. […] The peptide of SEQ ID NO: 9 was administered at doses of 9 and 25 nmol/kg. Cumulative body weight change (grams) was measured each day of the study except on day 3. Results are shown in FIG. 1 and are expressed as mean±SEM.

[2] = Second study in DIO mice: body weight change percent relative to vehicle (Example 19, FIG. 2); assay type: in vivo, mice (strain C57Bl6/NTac); conditions: eight days
Experimental: In addition, the peptide of SEQ ID NO: 8 was administered at 15 nmol/kg, while the peptide of SEQ ID NOs: 10 and 11 were administered at 3 nmol/kg. Body weight was measured daily for eight days and body weight change is expressed as percent relative to vehicle (FIG. 2).

[3] = Ambient glucose in DIO mice (Example 21, FIG. 4); assay type: in vivo, mice (strain C57Bl6/NTac); conditions: for change in ambient glucose compared to vehicle: day 9 of dosing
Experimental: In addition to cumulative body weight change, ambient glucose levels of the DIO mice (strain C57Bl6/NTac) were measured periodically throughout the study.

human GCGR = biological target: T1, human GCGR (Homo sapiens, UniProt P47871); assay: cAMP assay in cells expressing human GCGR (HitHunter cAMP XS); assay type: cell-based; conditions: for hGCGR/hGLP1R (hTone): ratio of EC50 at human GCGR to EC50 at human GLP1R
T1 construct: expressed in transfected cells
T1 sequence (P47871 26-477): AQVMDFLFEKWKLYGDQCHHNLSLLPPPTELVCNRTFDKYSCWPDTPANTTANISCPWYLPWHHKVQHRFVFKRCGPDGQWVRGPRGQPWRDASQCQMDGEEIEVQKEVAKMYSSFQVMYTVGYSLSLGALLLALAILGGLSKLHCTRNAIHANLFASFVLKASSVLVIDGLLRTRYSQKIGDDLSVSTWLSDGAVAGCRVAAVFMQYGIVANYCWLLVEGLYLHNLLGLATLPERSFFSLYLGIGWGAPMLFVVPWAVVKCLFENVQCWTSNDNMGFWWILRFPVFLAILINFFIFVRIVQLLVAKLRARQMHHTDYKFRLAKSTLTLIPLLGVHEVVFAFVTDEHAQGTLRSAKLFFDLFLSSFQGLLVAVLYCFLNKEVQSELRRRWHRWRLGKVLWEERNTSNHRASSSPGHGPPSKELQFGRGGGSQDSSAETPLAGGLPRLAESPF
Experimental: The cAMP protocol was as follows.
(§1) Peptides were dissolved in 100% DMSO and serially diluted to generate 11 point titrations. The peptide solutions were then transferred into 384-well assay plates (150 nL/well). Assay ready frozen cells expressing human GLP-1R or human GCGR were suspended in growth media consisting of DMEM/F12 medium (GIBCO), 10% FBS (GIBCO), lx P/S (GIBCO), 800 μg/mL Geneticin (GIBCO), and 300 μg/mL Hygromycin (Invitrogen). Cells were then diluted in assay buffer consisting of PBS (GIBCO), 7.5% BSA (Perkin Elmer), 100 μM RO 20-1724 (Sigma), and 20% human serum (MP Biomedical). The cell suspensions (15 μL) were then added to the assay plates containing the peptide solutions (30,000 cells/well for human GCGR; 20,000 cells/well for GLP1R). The cells were incubated for 1 hour at room temperature in the dark. Production of cAMP was determined using HitHunter™ cAMPXS kits (DiscoverX). ED buffer (20 μL) was then added to each well and the plates were incubated for 1 hour at room temperature in the dark. Subsequently, EA buffer (20 μL) was added to each well, and the plates were incubated for 1-18 hours at room temperature in the dark. Luminescence was measured using an EnVision Multilabel plate reader (Perkin Elmer). EC50 values were calculated using ADA data analyzer software.

human GLP-1R = biological target: T2, human GLP-1R (Homo sapiens, UniProt P43220); assay: cAMP assay in cells expressing human GLP-1R (HitHunter cAMP XS); assay type: cell-based; conditions: cAMP production, assay buffer with 20% human serum, 1 hour, read-out: GLPR1 EC50 (nM) human
T2 construct: expressed in transfected cells
T2 sequence (P43220 24-463): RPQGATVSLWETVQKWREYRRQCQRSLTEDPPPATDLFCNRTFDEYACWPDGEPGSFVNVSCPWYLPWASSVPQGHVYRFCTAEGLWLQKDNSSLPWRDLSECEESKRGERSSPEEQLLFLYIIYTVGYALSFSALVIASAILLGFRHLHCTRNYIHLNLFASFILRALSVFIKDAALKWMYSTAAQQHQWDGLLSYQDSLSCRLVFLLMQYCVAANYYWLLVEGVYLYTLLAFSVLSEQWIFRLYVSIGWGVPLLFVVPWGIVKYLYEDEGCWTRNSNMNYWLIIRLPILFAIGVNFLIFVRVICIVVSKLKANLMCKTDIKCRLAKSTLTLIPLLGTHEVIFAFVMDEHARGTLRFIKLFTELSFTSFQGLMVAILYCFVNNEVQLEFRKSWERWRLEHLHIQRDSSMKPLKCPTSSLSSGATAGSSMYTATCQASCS
Experimental: The cAMP protocol was as follows.
as §1

| Compound | body weight loss [1] [grams] | weight loss, percent relative to vehicle ([2]; 9 nmol/kg daily) | change in ambient glucose compared to vehicle ([3]; 9 nmol/kg) | hGCGR/hGLP1R (hTone) (human GCGR) | also measured |
| --- | --- | --- | --- | --- | --- |
| CCCCCCCCCCCCCCCC(=O)N[C@@H](CCC(=O)NCCCC[C@H](NC(=O)[C@H](CC(=O)O)NC(=O)[C@H](CO)NC(=O)[C@@H](NC(=O)[C@H](Cc1ccccc1)NC(=O)[C@@H](NC(=O)CNC(=O)[C@H](CCC(N)=O)NC(=O)[C@@H](CO)NC(=O)[C@@H](N)Cc1c[nH]cn1)[C@@H](C)O)[C@@H](C)O)C(=O)N[C@@H](CO)C(=O)N[C@@H](CCCCN)C(=O)N[C@@H](Cc1ccc(O)cc1)C(=O)N[C@@H](CC(C)C)C(=O)N[C@@H](CC(=O)O)C(=O)N[C@@H](C)C(=O)N[C@@H](CCCNC(=N)N)C(=O)N[C@@H](C)C(=O)N[C@@H](C)C(=O)N[C@@H](CCC(N)=O)C(=O)N[C@@H](CC(=O)O)C(=O)N[C@@H](Cc1ccccc1)C(=O)N[C@H](C(=O)N[C@@H](CCC(N)=O)C(=O)N[C@@H](Cc1c[nH]c2ccccc12)C(=O)N[C@@H](CC(C)C)C(=O)N[C@@H](CC(C)C)C(=O)N[C@@H](CC(=O)O)C(=O)N[C@H](C(N)=O)[C@@H](C)O)C(C)C)C(=O)O [SEQ ID NO: 6] | 10.5 | approximately 20% | – | – | decrease in ambient glucose compared to vehicle ([3]; 9 nmol/kg, day 7 of dosing): -60 mg/dL |
| CCCCCCCCCCCCCCCC(=O)N[C@@H](CCC(=O)N[C@@H](CCC(=O)NCCCC[C@H](NC(=O)[C@H](CC(=O)O)NC(=O)[C@H](CO)NC(=O)[C@@H](NC(=O)[C@H](Cc1ccccc1)NC(=O)[C@@H](NC(=O)CNC(=O)[C@H](CCC(N)=O)NC(=O)[C@@H](CO)NC(=O)[C@@H](N)Cc1c[nH]cn1)[C@@H](C)O)[C@@H](C)O)C(=O)N[C@@H](CO)C(=O)N[C@@H](CCCCN)C(=O)N[C@@H](Cc1ccc(O)cc1)C(=O)N[C@@H](CC(C)C)C(=O)N[C@@H](CC(=O)O)C(=O)N[C@H](C(=O)N[C@@H](CCCNC(=N)N)C(=O)N[C@@H](C)C(=O)N[C@@H](C)C(=O)N[C@@H](CCC(N)=O)C(=O)N[C@@H](CC(=O)O)C(=O)N[C@@H](Cc1ccccc1)C(=O)N[C@H](C(=O)N[C@@H](CCC(N)=O)C(=O)N[C@@H](Cc1c[nH]c2ccccc12)C(=O)N[C@@H](CC(C)C)C(=O)N[C@@H](CC(C)C)C(=O)N[C@@H](CC(=O)O)C(=O)N[C@H](C(N)=O)[C@@H](C)O)C(C)C)C(C)C)C(=O)O)C(=O)O [SEQ ID NO: 8] | 8 | approximately 17% | -72 mg/dL | – | weight loss, percent relative to vehicle ([2]; 15 nmol/kg daily): approximately 25% |
| CCCCCCCCCCCCCCCC(=O)N[C@@H](CCC(=O)N[C@@H](CCC(=O)NCCCC[C@H](NC(=O)[C@H](CC(=O)O)NC(=O)[C@H](CO)NC(=O)[C@@H](NC(=O)[C@H](Cc1ccccc1)NC(=O)[C@@H](NC(=O)CNC(=O)[C@@H](NC(=O)C(C)(C)NC(=O)[C@@H](N)Cc1c[nH]cn1)C(C)C)[C@@H](C)O)[C@@H](C)O)C(=O)N[C@@H](CO)C(=O)N[C@@H](CCCCN)C(=O)N[C@@H](Cc1ccc(O)cc1)C(=O)N[C@@H](CC(C)C)C(=O)N[C@@H](CC(=O)O)C(=O)NC(C)(C)C(=O)N[C@@H](CCCNC(=N)N)C(=O)N[C@@H](C)C(=O)N[C@@H](C)C(=O)N[C@@H](CCC(N)=O)C(=O)N[C@@H](CC(=O)O)C(=O)N[C@@H](Cc1ccccc1)C(=O)N[C@H](C(=O)N[C@@H](CCC(N)=O)C(=O)N[C@@H](Cc1c[nH]c2ccccc12)C(=O)N[C@@H](CC(C)C)C(=O)N[C@@H](CCCC)C(=O)N[C@@H](CC(=O)O)C(=O)N[C@H](C(N)=O)[C@@H](C)O)C(C)C)C(=O)O)C(=O)O [SEQ ID NO: 9] | ~3 | approximately 5% | did not exhibit significant changes in ambient glucose | – | decrease in ambient glucose compared to vehicle ([3]; 25 nmol/kg, second day of dosing): -75 mg/dL |
| CCCCCCCCCCCCCCCC(=O)N[C@@H](CCC(=O)N[C@@H](CCC(=O)NCCCC[C@H](NC(=O)[C@H](CC(=O)O)NC(=O)[C@H](CO)NC(=O)[C@@H](NC(=O)[C@H](Cc1ccccc1)NC(=O)[C@@H](NC(=O)CNC(=O)[C@H](CCC(N)=O)NC(=O)[C@H](C)NC(=O)[C@H](Cc1c[nH]cn1)NC(C)=O)[C@@H](C)O)[C@@H](C)O)C(=O)N[C@@H](CO)C(=O)N[C@@H](CCCCN)C(=O)N[C@@H](Cc1ccc(O)cc1)C(=O)N[C@@H](CC(C)C)C(=O)N[C@@H](CC(=O)O)C(=O)N[C@@H](CCC(=O)O)C(=O)N[C@@H](CCCNC(=N)N)C(=O)N[C@@H](C)C(=O)N[C@@H](C)C(=O)N[C@@H](CCC(N)=O)C(=O)N[C@@H](CC(=O)O)C(=O)N[C@@H](Cc1ccccc1)C(=O)N[C@H](C(=O)N[C@@H](CCC(N)=O)C(=O)N[C@@H](Cc1c[nH]c2ccccc12)C(=O)N[C@@H](CC(C)C)C(=O)N[C@@H](CC(C)C)C(=O)N[C@@H](CC(=O)O)C(=O)N[C@H](C(N)=O)[C@@H](C)O)C(C)C)C(=O)O)C(=O)O [compound 12] | – | – | – | 1.00 | – |
| CCCCCCCCCCCCCCCC(=O)N[C@@H](CCC(=O)N[C@@H](CCC(=O)NCCCC[C@H](NC(=O)[C@H](CC(=O)O)NC(=O)[C@H](CO)NC(=O)[C@@H](NC(=O)[C@H](Cc1ccc(F)cc1)NC(=O)[C@@H](NC(=O)CNC(=O)[C@H](CCC(N)=O)NC(=O)[C@@H](CO)NC(=O)[C@@H](N)Cc1c[nH]cn1)[C@@H](C)O)[C@@H](C)O)C(=O)N[C@@H](CO)C(=O)N[C@@H](CCCCN)C(=O)N[C@@H](Cc1ccc(O)cc1)C(=O)N[C@@H](CC(C)C)C(=O)N[C@@H](CC(=O)O)C(=O)N[C@@H](CCC(=O)O)C(=O)N[C@@H](CCCNC(=N)N)C(=O)N[C@@H](C)C(=O)N[C@@H](C)C(=O)N[C@@H](CCC(N)=O)C(=O)N[C@@H](CC(=O)O)C(=O)N[C@@H](Cc1ccccc1)C(=O)N[C@H](C(=O)N[C@@H](CCC(N)=O)C(=O)N[C@@H](Cc1c[nH]c2ccccc12)C(=O)N[C@@H](CC(C)C)C(=O)N[C@@H](CC(C)C)C(=O)N[C@@H](CC(=O)O)C(=O)N[C@H](C(N)=O)[C@@H](C)O)C(C)C)C(=O)O)C(=O)O [compound 14] | – | – | – | 0.93 | EC50 (human GCGR; cAMP production, cells expressing human GCGR, assay buffer with 20% human serum, 1 hour): 0.05 nM; EC50 (human GLP-1R): 0.06 nM |
| HsQGTFTSDK(γEγEC16)SKYLDVRRAQDFVQWLLDT-NH2 (H[dS]QGTFTSDK([γGlu-γGlu-C16])SKYLDVRRAQDFVQWLLDT-NH2; N-terminus assumed; SMILES CCCCCCCCCCCCCCCC(=O)N[C@@H](CCC(=O)N[C@@H](CCC(=O)NCCCC[C@H](NC(=O)[C@H](CC(=O)O)NC(=O)[C@H](CO)NC(=O)[C@@H](NC(=O)[C@H](Cc1ccccc1)NC(=O)[C@@H](NC(=O)CNC(=O)[C@H](CCC(N)=O)NC(=O)[C@@H](CO)NC(=O)[C@@H](N)Cc1c[nH]cn1)[C@@H](C)O)[C@@H](C)O)C(=O)N[C@@H](CO)C(=O)N[C@@H](CCCCN)C(=O)N[C@@H](Cc1ccc(O)cc1)C(=O)N[C@@H](CC(C)C)C(=O)N[C@@H](CC(=O)O)C(=O)N[C@H](C(=O)N[C@@H](CCCNC(=N)N)C(=O)N[C@@H](CCCNC(=N)N)C(=O)N[C@@H](C)C(=O)N[C@@H](CCC(N)=O)C(=O)N[C@@H](CC(=O)O)C(=O)N[C@@H](Cc1ccccc1)C(=O)N[C@H](C(=O)N[C@@H](CCC(N)=O)C(=O)N[C@@H](Cc1c[nH]c2ccccc12)C(=O)N[C@@H](CC(C)C)C(=O)N[C@@H](CC(C)C)C(=O)N[C@@H](CC(=O)O)C(=O)N[C@H](C(N)=O)[C@@H](C)O)C(C)C)C(C)C)C(=O)O)C(=O)O) [SEQ ID NO: 7] | ~3 | approximately 5% | did not exhibit significant changes in ambient glucose | – | – |

Reference: patent US10413593B2 (priority 2014, dated 2019)
